According to patent US10258639B2, “Methods for treating insulin resistance and for sensitizing patients to GLP1 agonist therapy” (Research Development Foundation, priority 2014, dated 2019):

Test system: INS1 cells
Assay: RNAseq of INS1 cells grown in chronic high glucose compared to controls and stimulated with FSK (Table 2)
Assay type: cell-based, rat
Method: INS-1 insulinoma cells were cultured in RPMI (corning cellgro) containing 10% fetal bovine serum (Gemini Bio Products), 100 μg/mL penicillin-streptomycin and 1 mM sodium pyruvate (corning cellgro). MIN6 cells were grown in DMEM (corning cellgro) with 10% FBS, 100 μg/mL penicillin-streptomycin and 70 uM beta-mercaptoethanol. For chronic glucose experiments, cells were maintained under low (2.8 mM) or high (20 mM) glucose for 3 days. Exendin-4 (10 nM), Forskolin (10 μM), KCl (40 mM), DMOG (1 mM) and rapamycin (50 nM) were added to cells as indicated. Cellular cAMP levels were measured using an ELISA kit (Cayman Chemical Company) according to manufacturer's instructions. Total RNAs from cells or primary islets were extracted using Trizol and cDNA was generated using the Transcriptor First Strand cDNA Synthesis kit (Roche Applied Science). cDNAs were quantified on a lightcycler 480 instrument (Roche Applied Science). Gene expression data were presented relative to the expression of housekeeping gene L32 (rat samples) and 18S (mouse and human islets). RNA-Seq libraries were prepared using the mRNA isolation protocol and the NEBNext-Ultra kits from New England Biolabs following the manufacturer's protocols. Libraries were quantitated by Qubit (Invitrogen), and run on a MiSeq instrument with paired-end 75 bp reads using v3 chemistry (Illumina) Data were analyzed by tophat2 and cuffdiff against the mouse mm10 genome build. The GEO accession number for RNAseq studies reported in the paper is GSE60158.

## C=C[C@@]1(C)CC(=O)[C@]2(O)[C@@]3(C)[C@@H](O)CCC(C)(C)[C@@H]3[C@H](O)[C@H](OC(C)=O)[C@@]2(C)O1 [FSK, Forskolin]
High glucose, FSK
  Accsl RNAseq value: 0.1
  Acpt RNAseq value: 0.2
  Acsl4 RNAseq value: 24.1
  Agt RNAseq value: 4.7
  Ahi1 RNAseq value: 18.6
  Bhlha15 RNAseq value: 10.9
  Btg3 RNAseq value: 63.0
  Bysl RNAseq value: 56.8
  Canx RNAseq value: 134.4
  Ccni RNAseq value: 240.1
  Chd1 RNAseq value: 24.3
  Chrne RNAseq value: 0.0
  Ctf1 RNAseq value: 0.4
  Cxcl2 RNAseq value: 1.2
  Cyth3 RNAseq value: 54.2
  Dkc1 RNAseq value: 97.6
  Epha3 RNAseq value: 0.0
  Epor RNAseq value: 0.1
  Fam49a RNAseq value: 0.1
  Ficd RNAseq value: 15.9
  Fmc1 RNAseq value: 28.5
  Fn1 RNAseq value: 320.4
  Gabre RNAseq value: 0.0
  Gars RNAseq value: 308.1
  Ggt5 RNAseq value: 0.0
  Gnl3 RNAseq value: 23.1
  Gnmt RNAseq value: 0.0
  Gzmm RNAseq value: 0.0
  Hmcn1 RNAseq value: 0.0
  Hmga2 RNAseq value: 0.0
  Hnrnpa1 RNAseq value: 35.4
  Hnrpdl RNAseq value: 165.3
  Hs3st2 RNAseq value: 1.0
  Hspa4 RNAseq value: 113.8
  Hspd1 RNAseq value: 63.0
  Icam2 RNAseq value: 0.0
  Il13ra1 RNAseq value: 0.2
  Il28ra RNAseq value: 6.8
  Kcnb1 RNAseq value: 13.1
  Kcnj13 RNAseq value: 0.8
  Kdm1b RNAseq value: 8.1
  Kif9 RNAseq value: 0.0
  LOC683722 RNAseq value: 7.9
  LOC686295 RNAseq value: 3.8
  LOC689959 RNAseq value: 7.2
  Lrfn5 RNAseq value: 0.2
  Map3k4 RNAseq value: 22.7
  Mef2d RNAseq value: 175.0
  Megf10 RNAseq value: 0.2
  Msn RNAseq value: 3.2
  Myof RNAseq value: 0.1
  Nckap1l RNAseq value: 1.8
  Nkx2-2 RNAseq value: 93.4
  Nolc1 RNAseq value: 192.8
  Notch4 RNAseq value: 0.6
  Ormdl3 RNAseq value: 128.5
  Otop3 RNAseq value: 0.0
  Pabpc6 RNAseq value: 0.1
  Pde3b RNAseq value: 45.5
  Pde4dip RNAseq value: 29.3
  Pdrg1 RNAseq value: 28.6
  Plcb2 RNAseq value: 0.0
  RGD1309079 RNAseq value: 0.8
  RGD1311084 RNAseq value: 0.0
  Rab3gap2 RNAseq value: 29.1
  Rab11fip1 RNAseq value: 8.3
  Rap2a RNAseq value: 12.9
  Rho RNAseq value: 0.1
  Rpl7a RNAseq value: 0.7
  Rpl17 RNAseq value: 126.3
  Rrs1 RNAseq value: 71.4
  Sgce RNAseq value: 0.3
  Smad1 RNAseq value: 29.8
  Smad3 RNAseq value: 1.6
  Snapc1 RNAseq value: 2.7
  Sncaip RNAseq value: 4.9
  Spon2 RNAseq value: 0.3
  Srp54 RNAseq value: 27.8
  Stard8 RNAseq value: 0.4
  Syp RNAseq value: 447.7
  T2 RNAseq value: 0.1
  Taf1a RNAseq value: 6.7
  Tex38 RNAseq value: 0.1
  Tmem114 RNAseq value: 0.0
  Tomm20 RNAseq value: 70.0
  Tpp2 RNAseq value: 12.3
  Twistnb RNAseq value: 9.1
  Usp9x RNAseq value: 40.0
  Vps37b RNAseq value: 32.2
  Zfp830 RNAseq value: 17.0
  Zfp385d RNAseq value: 0.1
High glucose, FSK/control
  Accsl Fold: 0.9
  Acpt Fold: 3.0
  Acsl4 Fold: 1.6
  Agt Fold: 1.8
  Ahi1 Fold: 1.5
  Bhlha15 Fold: 1.1
  Btg3 Fold: 1.2
  Bysl Fold: 1.5
  Canx Fold: 1.1
  Ccni Fold: 1.5
  Chd1 Fold: 1.4
  Chrne Fold: 0.0
  Ctf1 Fold: 1.8
  Cxcl2 Fold: 3.2
  Cyth3 Fold: 3.2
  Dkc1 Fold: 1.2
  Epha3 Fold: 0.5
  Epor Fold: 1.0
  Fam49a Fold: 1.0
  Ficd Fold: 1.2
  Fmc1 Fold: 1.1
  Fn1 Fold: 2.7
  Gars Fold: 1.8
  Gnl3 Fold: 1.3
  Gzmm Fold: 0.0
  Hmcn1 Fold: 0.3
  Hmga2 Fold: 0.0
  Hnrnpa1 Fold: 1.4
  Hnrpdl Fold: 1.5
  Hs3st2 Fold: 2.6
  Hspa4 Fold: 1.2
  Hspd1 Fold: 1.0
  Icam2 Fold: 0.0
  Il13ra1 Fold: 1.0
  Il28ra Fold: 1.7
  Kcnb1 Fold: 0.8
  Kcnj13 Fold: 3.0
  Kdm1b Fold: 1.4
  Kif9 Fold: 0.7
  LOC683722 Fold: 1.8
  LOC686295 Fold: 1.3
  LOC689959 Fold: 0.9
  Lrfn5 Fold: 1.2
  Map3k4 Fold: 1.3
  Mef2d Fold: 1.8
  Msn Fold: 1.0
  Myof Fold: 0.6
  Nckap1l Fold: 0.9
  Nkx2-2 Fold: 2.2
  Nolc1 Fold: 1.2
  Notch4 Fold: 1.7
  Ormdl3 Fold: 1.1
  Otop3 Fold: 0.0
  Pabpc6 Fold: 4.4
  Pde3b Fold: 1.9
  Pde4dip Fold: 1.4
  Pdrg1 Fold: 1.0
  Plcb2 Fold: 1.0
  RGD1309079 Fold: 1.3
  Rab3gap2 Fold: 1.3
  Rab11fip1 Fold: 1.9
  Rap2a Fold: 2.2
  Rho Fold: 0.7
  Rpl7a Fold: 2.5
  Rpl17 Fold: 1.0
  Rrs1 Fold: 1.5
  Sgce Fold: 0.8
  Smad1 Fold: 1.4
  Smad3 Fold: 0.7
  Snapc1 Fold: 1.2
  Sncaip Fold: 1.4
  Spon2 Fold: 0.7
  Srp54 Fold: 1.1
  Stard8 Fold: 2.3
  Syp Fold: 1.5
  T2 Fold: 0.7
  Taf1a Fold: 1.3
  Tex38 Fold: 0.3
  Tomm20 Fold: 1.4
  Tpp2 Fold: 1.3
  Twistnb Fold: 1.5
  Usp9x Fold: 1.5
  Vps37b Fold: 1.3
  Zfp830 Fold: 1.1
  Zfp385d Fold: 0.2
Low glucose, FSK
  Accsl RNAseq value: 0.3
  Acpt RNAseq value: 0.3
  Acsl4 RNAseq value: 28.6
